31 compounds from patent publication US8815881B2 (Hoffmann-La Roche Inc., priority 2010, dated 2014) can be followed below.

The assay deals with endogenous cellular BACE2 in the Ins1e rat cell line (Rattus norvegicus (Rat), UniProt Q6IE75). The experiment in a line: Assay for BACE inhibition by measuring cellular TMEM27 cleavage (ELISA of shed hTMEM27 from INS-TMEM27 cells). The following applies: assay a): cellular TMEM27 cleavage, INS-TMEM27 cells (superscript a). The assay is classed as cell-based. In short, it runs like this: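 INS1e-derived cells with doxycycline-inducible (TetOn) full-length human TMEM27 get inhibitor 2 h before 500 ng/ml doxycycline, then 46 h further culture at 37 °C. Shed TMEM27 in supernatant measured by sandwich ELISA (anti-extracellular-domain antibodies); EC50 from concentration-response curve fit.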
For orientation: An ELISA detects its analyte on a solid surface through an enzyme-linked reagent.

pIC50: −log10 of the molar value.

endogenous cellular BACE2 in the Ins1e rat cell line, sequence (Q6IE75 63-514): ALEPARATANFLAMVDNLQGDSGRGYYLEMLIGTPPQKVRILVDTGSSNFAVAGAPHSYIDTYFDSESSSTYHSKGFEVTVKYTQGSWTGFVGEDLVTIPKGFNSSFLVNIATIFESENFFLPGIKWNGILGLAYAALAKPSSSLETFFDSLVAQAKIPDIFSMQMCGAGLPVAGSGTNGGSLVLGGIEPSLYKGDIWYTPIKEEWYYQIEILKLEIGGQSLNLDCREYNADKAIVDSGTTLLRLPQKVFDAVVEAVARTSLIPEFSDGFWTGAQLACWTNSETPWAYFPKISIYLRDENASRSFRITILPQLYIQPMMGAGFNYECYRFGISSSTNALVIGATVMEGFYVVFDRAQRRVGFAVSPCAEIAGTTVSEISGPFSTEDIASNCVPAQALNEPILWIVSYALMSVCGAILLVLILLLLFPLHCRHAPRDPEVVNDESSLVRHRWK

`CN1C(=O)C(C)(C)[C@@](C)(c2cc(Nc3ccc(F)cc3F)ccc2F)N=C1N` [Example 81, (S)-2-Amino-6-(5-(2,4-difluorophenylamino)-2-fluorophenyl)-3,5,5,6-tetramethyl-5,6-dihydropyrimidin-4(3H)-one] showed a pIC50 of 6.65.

`CN1C(=O)C(C)(C)[C@@](C)(c2cc(NCC3(C(F)(F)F)CC3)ccc2F)N=C1N` [Example 87, (S)-2-Amino-6-{2-fluoro-5-[(1-trifluoromethyl-cyclopropylmethyl)-amino]-phenyl}-3,5,5,6-tetramethyl-5,6-dihydro-3H-pyrimidin-4-one] showed a pIC50 of 6.92.

For the compound `CN1C(=O)C(C)(C)[C@@](C)(c2cc(Nc3ccccc3Cl)ccc2F)N=C1N` [Example 119, (S)-2-Amino-6-(5-(2-chlorophenylamino)-2-fluorophenyl)-3,5,5,6-tetramethyl-5,6-dihydropyrimidin-4(3H)-one], the negative-log IC50 (pIC50) was 7.80.

Take `CN1C(=O)C(C)(C)[C@@](C)(c2cc(NC3CCC(CC(=O)O)C3)ccc2F)N=C1N` (stereo partly drawn) [Example 115, 2-(3-(3-((S)-2-Amino-1,4,5,5-tetramethyl-6-oxo-1,4,5,6-tetrahydropyrimidin-4-yl)-4-fluorophenylamino)cyclopentyl)acetic acid]: the negative logarithm of the IC50 (pIC50) was 6.01.

`CN1C(=O)C(C)(C)[C@@](C)(c2cc(NC3CCN(c4ccc(F)cc4)C3)ccc2F)N=C1N` (stereo partly drawn) [Example 31, (6S)-2-Amino-6-(2-fluoro-5-(1-(4-fluorophenyl)pyrrolidin-3-ylamino)phenyl)-3,5,5,6-tetramethyl-5,6-dihydropyrimidin-4(3H)-one] showed a pIC50 of 7.43.

In the case of `CN1C(=O)C(C)(C)[C@@](C)(c2cc(NC(=O)[C@@H]3CC3(F)F)ccc2F)N=C1N` [Example 10, (S)-2,2-difluoro-cyclopropanecarboxylic acid [3-((S)-2-amino-1,4,5,5-tetramethyl-6-oxo-1,4,5,6-tetrahydro-pyrimidin-4-yl)-4-fluoro-phenyl]-amide], the negative logarithm of the IC50 (pIC50) is 8.70.

In turn, `CN1C(=O)C(C)(C)[C@@](C)(c2cc(NC3CCCN(Cc4ccccc4)C3)ccc2F)N=C1N` (stereo partly drawn) [Example 44, (S)-2-Amino-6-[5-(1-benzyl-piperidin-3-ylamino)-2-fluoro-phenyl]-3,5,5,6-tetramethyl-5,6-dihydro-3H-pyrimidin-4-one] gave a pIC50 of 7.35.

`CN1C(=O)C(C)(C)[C@@](C)(c2cc(Nc3cccc4c3OCC4)ccc2F)N=C1N` [Example 157, (S)-2-Amino-6-(5-(2,3-dihydrobenzofuran-7-ylamino)-2-fluorophenyl)-3,5,5,6-tetramethyl-5,6-dihydropyrimidin-4(3H)-one] showed a pIC50 of 6.18.

Compound `CN1C(=O)C(C)(C)[C@@](C)(c2cc(NC(=O)CC3CCCC3)ccc2F)N=C1N` [Example 26, (S)—N-(3-(2-amino-1,4,5,5-tetramethyl-6-oxo-1,4,5,6-tetrahydropyrimidin-4-yl)-4-fluorophenyl)-2-cyclopentylacetamide] had a negative-log IC50 (pIC50) of 6.56.

Turning to `Cc1nc(CNc2ccc(F)c([C@@]3(C)N=C(N)N(C)C(=O)C3(C)C)c2)co1` [Example 109, (S)-2-Amino-6-{2-fluoro-5-[(2-methyl-oxazol-4-ylmethyl)-amino]-phenyl}-3,5,5,6-tetramethyl-5,6-dihydro-3H-pyrimidin-4-one], the negative-log IC50 (pIC50) is 7.35.

`CN1C(=O)C(C)(C)[C@@](C)(c2cc(Nc3ccnn3Cc3ccccc3)ccc2F)N=C1N` [Example 107, (S)-2-Amino-6-(5-(1-benzyl-1H-pyrazol-5-ylamino)-2-fluorophenyl)-3,5,5,6-tetramethyl-5,6-dihydropyrimidin-4(3H)-one] had a negative logarithm of the IC50 (pIC50) of 8.70.

On to `CN1C(=O)C(C)(C)[C@@](C)(c2cc(N[C@H]3CCC[C@@H]3O)ccc2F)N=C1N` [Example 92, (S)-2-Amino-6-(2-fluoro-5-((1S,2S)-2-hydroxycyclopentylamino)phenyl)-3,5,5,6-tetramethyl-5,6-dihydropyrimidin-4(3H)-one], for which the pIC50 is 6.55.

On to `CN1C(=O)C(C)(C)[C@@](C)(c2cc(NCC3CCOC3)ccc2F)N=C1N` (stereo partly drawn) [Example 76, (S)-2-Amino-6-{2-fluoro-5-[(tetrahydro-furan-3-ylmethyl)-amino]phenyl}-3,5,5,6-tetramethyl-5,6-dihydro-3H-pyrimidin-4-one], for which the negative logarithm of the IC50 (pIC50) is 7.82.

Turning to `CN1C(=O)C(C)(C)[C@@](C)(c2cc(NC3CS(=O)(=O)c4ccccc43)ccc2F)N=C1N` (stereo partly drawn) [Example 144, (S)-2-Amino-6-[5-(1,1-dioxo-2,3-dihydro-1H-1-benzo[b]thiophen-3-ylamino)-2-fluoro-phenyl]-3,5,5,6-tetramethyl-5,6-dihydro-3H-pyrimidin-4-one], the pIC50 is 8.52.

As for `CN1C(=O)C(C)(C)[C@@](C)(c2cc(NCC3CC3(F)F)ccc2F)N=C1N` (stereo partly drawn) [Example 58, (S)-2-Amino-6-{5-[(2,2-difluoro-cyclopropylmethyl)-amino]-2-fluoro-phenyl}-3,5,5,6-tetramethyl-5,6-dihydro-3H-pyrimidin-4-one], the pIC50 was 8.00.

For the compound `CN1C(=O)C(C)(C)[C@@](C)(c2cc(NC3CCc4cc(Cl)ccc43)ccc2F)N=C1N` (stereo partly drawn) [Example 29, (S)-2-Amino-6-[5-(5-chloro-indan-1-ylamino)-2-fluoro-phenyl]-3,5,5,6-tetramethyl-5,6-dihydro-3H-pyrimidin-4-one], the pIC50 was 7.49.

The compound `CN1C(=O)C[C@]2(CCc3ccc(NC(=O)C4(C(F)(F)F)CC4)cc32)N=C1N` [Example 15, (S)—N-(2′-Amino-1′-methyl-6′-oxo-2,3,5′,6′-tetrahydro-1′H-spiro[indene-1,4′-pyrimidine]-6-yl)-1-(trifluoromethyl)cyclopropanecarboxamide] had a pIC50 of 8.15.

Regarding `Cc1cc(C(C)Nc2ccc(F)c([C@@]3(C)N=C(N)N(C)C(=O)C3(C)C)c2)[nH]n1` (stereo partly drawn) [Example 125, (S)-2-Amino-6-{2-fluoro-5-[1-(5-methyl-2H-pyrazol-3-yl)-ethylamino]-phenyl}-3,5,5,6-tetramethyl-5,6-dihydro-3H-pyrimidin-4-one], the pIC50 was 7.55.

The compound `CCC1CC(Nc2ccc(F)c([C@@]3(C)N=C(N)N(C)C(=O)C3(C)C)c2)c2ccccc21` (stereo partly drawn) [Example 113, (S)-2-Amino-6-[5-(3-ethyl-indan-1-ylamino)-2-fluoro-phenyl]-3,5,5,6-tetramethyl-5,6-dihydro-3H-pyrimidin-4-one] had a negative-log IC50 (pIC50) of 7.44.

`CN1C(=O)C(C)(C)[C@@](C)(c2cc(NCc3nn(C)cc3Cl)ccc2F)N=C1N` [Example 96, (S)-2-Amino-6-{5-[(4-chloro-1-methyl-1H-pyrazol-3-ylmethyl)-amino]-2-fluoro-phenyl}-3,5,5,6-tetramethyl-5,6-dihydro-3H-pyrimidin-4-one] showed a pIC50 of 9.00.

As for `CN1C(=O)C(C)(C)[C@@](C)(c2cc(Nc3cccc(F)c3)ccc2F)N=C1N` [Example 88, (S)-2-Amino-6-[2-fluoro-5-(3-fluoro-phenylamino)-phenyl]-3,5,5,6-tetramethyl-5,6-dihydro-3H-pyrimidin-4-one], the pIC50 was 6.10.

As for `CN1C(=O)C(C)(C)[C@@](C)(c2cc(NCC3CCC3)ccc2F)N=C1N` [Example 70, (S)-2-Amino-6-[5-(C-cyclobutylmethyl-amino)-2-fluoro-phenyl]-3,5,5,6-tetramethyl-5,6-dihydro-3H-pyrimidin-4-one], the pIC50 was 7.80.

`COc1cc(F)c(F)cc1Nc1ccc(F)c([C@@]2(C)N=C(N)N(C)C(=O)C2(C)C)c1` [Example 102, (S)-2-Amino-6-[5-(4,5-difluoro-2-methoxy-phenylamino)-2-fluoro-phenyl]-3,5,5,6-tetramethyl-5,6-dihydro-3H-pyrimidin-4-one] gave a pIC50 of 6.66.

With `CC1CCC(Nc2ccc(F)c([C@@]3(C)N=C(N)N(C)C(=O)C3(C)C)c2)C1` (stereo partly drawn) [Example 24, (S)-2-Amino-6-[2-fluoro-5-(3-methyl-cyclopentylamino)-phenyl]-3,5,5,6-tetramethyl-5,6-dihydro-3H-pyrimidin-4-one], the pIC50 is 7.41.

`CN1C(=O)C(C)(C)[C@@](C)(c2cc(Nc3ccccc3C#N)ccc2F)N=C1N` [Example 103, (S)-2-(3-(2-Amino-1,4,5,5-tetramethyl-6-oxo-1,4,5,6-tetrahydropyrimidin-4-yl)-4-fluorophenylamino)benzonitrile]: the pIC50 was 9.00.

Compound `COC(F)(C(=O)Nc1ccc(F)c([C@@]2(C)N=C(N)N(C)C(=O)C2(C)C)c1)C(F)(F)F` (stereo partly drawn) [Example 20, N-(3-((S)-2-Amino-1,4,5,5-tetramethyl-6-oxo-1,4,5,6-tetrahydropyrimidin-4-yl)-4-fluorophenyl)-2,3,3,3-tetrafluoro-2-methoxypropanamide] showed a negative-log IC50 (pIC50) of 7.18.

`COc1ccc(Nc2ccc(F)c([C@@]3(C)N=C(N)N(C)C(=O)C3(C)C)c2)c(OC)c1` [Example 108, (S)-2-Amino-6-(5-(2,4-dimethoxyphenylamino)-2-fluorophenyl)-3,5,5,6-tetramethyl-5,6-dihydropyrimidin-4(3H)-one]: the negative-log IC50 (pIC50) is 6.75.

In turn, `CCOC(=O)N1CCC(Nc2ccc(F)c([C@@]3(C)N=C(N)N(C)C(=O)C3(C)C)c2)C1` (stereo partly drawn) [Example 23, 3-[3-((S)-2-Amino-1,4,5,5-tetramethyl-6-oxo-1,4,5,6-tetrahydro-pyrimidin-4-yl)-4-fluoro-phenylamino]-pyrrolidine-1-carboxylic acid ethyl ester] gave a pIC50 of 8.15.

The compound `CC(Nc1ccc(F)c([C@@]2(C)N=C(N)N(C)C(=O)C2(C)C)c1)c1ccccn1` (stereo partly shown) [Example 40] had a pIC50 of 7.68.

Consider `CC(Cc1ccc(F)cc1)Nc1ccc(F)c([C@@]2(C)N=C(N)N(C)C(=O)C2(C)C)c1` (stereo partly drawn) [Example 42, (S)-2-Amino-6-{2-fluoro-5-[2-(4-fluoro-phenyl)-1-methyl-ethylamino]-phenyl}-3,5,5,6-tetramethyl-5,6-dihydro-3H-pyrimidin-4-one], for which the pIC50 is 6.68.

On to `CC1CCCC1Nc1ccc(F)c([C@@]2(C)N=C(N)N(C)C(=O)C2(C)C)c1` (stereo partly drawn) [Example 25, (S)-2-Amino-6-[2-fluoro-5-(2-methyl-cyclopentylamino)-phenyl]-3,5,5,6-tetramethyl-5,6-dihydro-3H-pyrimidin-4-one], for which the pIC50 was 8.40.

As a reminder, the pIC50 is the IC50 on a negative log10 scale, so that one unit is a factor of ten. High values mean a low IC50, low ones a high IC50.
